# According to PubChem BioAssay AID1918933 (Molecular Pharmacology Branch, DTP, NCI, 2023):
# “And” between values parts separate entries of the source, which are not always exact repeats. Identical values can stand only once.
# System: 186277-243-T-J2-PDC complex spheroid viability
# Experiment: Anticancer human tumor 186277-243-T-J2-PDC patient-derived colon adenocarcinoma cell line growth inhibition
# Conditions: for viability, T/C: stronger effect = lower value
# How it was run: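 Drug combinations with the LSD1 inhibitor iadademstat tested on tumor cells co-cultured as spheroids with endothelial cells and mesenchymal stem cells. Concentrations descended in half-log increments from clinical Cmax or 10 microM.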
# [1] = curve of first compound, second compound 0.1 µM
# [2] = curve of first compound, second compound 0.316 µM
# [3] = curve of first compound, second compound 1 µM
# [4] = curve of first compound, second compound 3.16 µM
# [5] = curve of first compound, second compound 10 µM
# 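Note: 7 day exposure to compounds.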
# 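Throughout, for viability, T/C: 100% = DMSO vehicle control viability.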
structure (smiles),measurement,setting,value
O=C(C=Cn1cnc(-c2cc(C(F)(F)F)cc(C(F)(F)F)c2)n1)NNc1cnccn1 + NC1CC1c1ccc(-c2cccc(O)c2)cc1,IC50,[1],56.5 nM
same,IC50,[2],57.2 nM
same,IC50,[3],60 nM
same,IC50,[4],58.4 nM
same,IC50,[5],52.5 nM
same,"viability, T/C","second compound 0.1 µM, first compound 0.00316 µM",97.5%
same,"viability, T/C","second compound 0.1 µM, first compound 0.01 µM",96%
same,"viability, T/C","second compound 0.1 µM, first compound 0.0316 µM",84.8%
same,"viability, T/C","second compound 0.1 µM, first compound 0.1 µM",15.7%
same,"viability, T/C","second compound 0.1 µM, first compound 0.316 µM",2.81%
same,"viability, T/C","second compound 0.1 µM, first compound 1 µM",1.29%
same,"viability, T/C","second compound 0.316 µM, first compound 0.00316 µM",104%
same,"viability, T/C","second compound 0.316 µM, first compound 0.01 µM",105%
same,"viability, T/C","second compound 0.316 µM, first compound 0.0316 µM",88.3%
same,"viability, T/C","second compound 0.316 µM, first compound 0.1 µM",13.8%
same,"viability, T/C","second compound 0.316 µM, first compound 0.316 µM",2.94%
same,"viability, T/C","second compound 0.316 µM, first compound 1 µM",1.28%
same,"viability, T/C","second compound 1 µM, first compound 0.00316 µM",104%
same,"viability, T/C","second compound 1 µM, first compound 0.01 µM",106%
same,"viability, T/C","second compound 1 µM, first compound 0.0316 µM",93.1%
same,"viability, T/C","second compound 1 µM, first compound 0.1 µM",15.5%
same,"viability, T/C","second compound 1 µM, first compound 0.316 µM",3.14%
same,"viability, T/C","second compound 1 µM, first compound 1 µM",1.35%
same,"viability, T/C","second compound 3.16 µM, first compound 0.00316 µM",110%
same,"viability, T/C","second compound 3.16 µM, first compound 0.01 µM",116%
same,"viability, T/C","second compound 3.16 µM, first compound 0.0316 µM",91%
same,"viability, T/C","second compound 3.16 µM, first compound 0.1 µM",14%
same,"viability, T/C","second compound 3.16 µM, first compound 0.316 µM",2.92%
same,"viability, T/C","second compound 3.16 µM, first compound 1 µM",1.47%
same,"viability, T/C","second compound 10 µM, first compound 0.00316 µM",94.1%
same,"viability, T/C","second compound 10 µM, first compound 0.01 µM",95.2%
same,"viability, T/C","second compound 10 µM, first compound 0.0316 µM",78.8%
same,"viability, T/C","second compound 10 µM, first compound 0.1 µM",13.3%
same,"viability, T/C","second compound 10 µM, first compound 0.316 µM",3.41%
same,"viability, T/C","second compound 10 µM, first compound 1 µM",1.57%
CCc1c2c(nc3ccc(O)cc13)-c1cc3c(c(=O)n1C2)COC(=O)[C@]3(O)CC,"viability, T/C",compound 0.000949 µM,48.5% and 39.8%
same,"viability, T/C",compound 0.003 µM,35.5% and 27%
same,"viability, T/C",compound 0.00949 µM,31.5% and 23.3%
same,"viability, T/C",compound 0.03 µM,22% and 4.12%
same,"viability, T/C",compound 0.0949 µM,2.19% and 0.43%
same,"viability, T/C",compound 0.3 µM,0.75% and 0.28%
same,IC50,curve of compound,< 0.949 nM
Nc1ncn(C2CC(O)C(CO)S2)c(=O)n1 (configuration not stated) + NC1CC1c1ccc(-c2cccc(O)c2)cc1,IC50,[1],105 nM
same,IC50,[2],88.8 nM
same,IC50,[3],91.4 nM
same,IC50,[4],97.4 nM
same,IC50,[5],79.5 nM
same,"viability, T/C","second compound 0.1 µM, first compound 0.000949 µM",113%
same,"viability, T/C","second compound 0.1 µM, first compound 0.003 µM",123%
same,"viability, T/C","second compound 0.1 µM, first compound 0.00949 µM",125%
same,"viability, T/C","second compound 0.1 µM, first compound 0.03 µM",143%
same,"viability, T/C","second compound 0.1 µM, first compound 0.0949 µM",53.8%
same,"viability, T/C","second compound 0.1 µM, first compound 0.3 µM",10.9%
same,"viability, T/C","second compound 0.316 µM, first compound 0.000949 µM",103%
same,"viability, T/C","second compound 0.316 µM, first compound 0.003 µM",119%
same,"viability, T/C","second compound 0.316 µM, first compound 0.00949 µM",110%
same,"viability, T/C","second compound 0.316 µM, first compound 0.03 µM",129%
same,"viability, T/C","second compound 0.316 µM, first compound 0.0949 µM",46%
same,"viability, T/C","second compound 0.316 µM, first compound 0.3 µM",9.74%
same,"viability, T/C","second compound 1 µM, first compound 0.000949 µM",102%
same,"viability, T/C","second compound 1 µM, first compound 0.003 µM",106%
same,"viability, T/C","second compound 1 µM, first compound 0.00949 µM",130%
same,"viability, T/C","second compound 1 µM, first compound 0.03 µM",128%
same,"viability, T/C","second compound 1 µM, first compound 0.0949 µM",47.7%
same,"viability, T/C","second compound 1 µM, first compound 0.3 µM",10.7%
same,"viability, T/C","second compound 3.16 µM, first compound 0.000949 µM",113%
same,"viability, T/C","second compound 3.16 µM, first compound 0.003 µM",111%
same,"viability, T/C","second compound 3.16 µM, first compound 0.00949 µM",105%
same,"viability, T/C","second compound 3.16 µM, first compound 0.03 µM",137%
same,"viability, T/C","second compound 3.16 µM, first compound 0.0949 µM",50.9%
same,"viability, T/C","second compound 3.16 µM, first compound 0.3 µM",10.3%
same,"viability, T/C","second compound 10 µM, first compound 0.000949 µM",93.8%
same,"viability, T/C","second compound 10 µM, first compound 0.003 µM",94.1%
same,"viability, T/C","second compound 10 µM, first compound 0.00949 µM",104%
same,"viability, T/C","second compound 10 µM, first compound 0.03 µM",107%
same,"viability, T/C","second compound 10 µM, first compound 0.0949 µM",41%
same,"viability, T/C","second compound 10 µM, first compound 0.3 µM",8.69%
